Tested on: influenza NAs

With “4NH2Neu5Acα2-3LacNAcβPorNH-PEG4-Biotin [Compound 9d]” the “resistance of immobilized sialoside to NA-catalyzed cleavage during BLI incubation” value was “bound to the NAs but was partially cleaved off during the incubation”.

For “4-Guanidino-Neu5Acα2-3LacNAcβPorNH-PEG4-Biotin [Compound 10d]”, the “resistance of immobilized sialoside to NA-catalyzed cleavage during BLI incubation” value was “resistant to the NA-catalyzed cleavage”.
